What all share (experiment): NCI-60 cell line screen, 48 h
Assay [1] has as its system SK-MEL-28.
Assay [2] deals with SF-539.
Assay [3] deals with RXF 393.
In assay [4] the test system is NCI/ADR-RES.
For assay [5], the system named is IGROV-1.
Assay [6] relates to DU-145.
For assay [7], the system named is MDA-MB-435.
Assay [8] deals with Hs-578T.
Assay [9] relates to A498.
The subject of assay [10] is LOX IMVI.
The subject of assay [11] is PC-3.
Assay [12] has as its system MCF7.
The test system of assay [13] is HL-60.
The test system of assay [14] is SNB-19.
For assay [15], the system named is COLO 205.
The test system of assay [16] is T47D.
For assay [17], the system named is KM12.
Assay [18] relates to M14.
For assay [19], the system named is SR.
Assay [20] deals with MDA-N.

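1) Cells in 96-well plates. 2) Compound, 48 h, 5 concentrations. 3) Linear interpolation between surrounding doses. 4) Unreached endpoint = highest concentration. GI50 = concentration required for 50% inhibition of growth.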 Calls of active or inactive are those of the source. Rule as the data show it: active = GI50 up to about 1.1 µM and inactive = higher.

Take `COc1cccc(C2c3cc4c(cc3OC(N3CCOCC3)C2C)OCO4)c1O` (stereo not given): the GI50 in assay [1] is 10.9 µM (inactive); in assay [2], 2.69 µM (inactive); in assay [3], 2.13 µM (inactive); in assay [4], 7.21 µM (inactive); in [5], 6.19 µM (inactive); in assay [6] it was 4.43 µM (inactive). Also, the GI50 in [7] is 1.24 µM (inactive); in assay [8] it was 1.77 µM (inactive); in assay [9] it was 6.27 µM (inactive); in assay [10], 5.31 µM (inactive); in assay [11] it was 4.7 µM (inactive); in assay [12] it was 5.14 µM (inactive). The GI50 is 2.26 µM (inactive) in [13]; 3.44 µM (inactive) in assay [14]; 4.28 µM (inactive) in assay [15]; 4.48 µM (inactive) in [16]; 3.48 µM (inactive) in assay [17]; 4.6 µM (inactive) in assay [18]. For the same compound, the GI50 in [19] is 1.23 µM (inactive); in assay [20], 1.03 µM (active).

For `COC(=O)C1C(OS(=O)(=O)O)CCC2CN3CCc4c([nH]c5ccccc45)C3CC21` (stereo not given), the GI50 in [1], in [2], in [3], in [4], in assay [5] and in [6] was > 100 µM (inactive) throughout. For the same compound, the GI50 in assay [7], in assay [8], in assay [9], in assay [10], in assay [11] and in assay [12] was > 100 µM (inactive) throughout. Besides, the GI50 in assay [13], in [14], in assay [15], in [16], in assay [17] and in [18] was > 100 µM (inactive) each time. The GI50 in [19] and in assay [20] was > 100 µM (inactive) each time.

In the case of `C/C(CC1SCCCS1)=C(/C)CC1SCCCS1`, the GI50 in assay [1], in assay [2], in [3], in assay [4], in assay [5] and in [6] was > 100 µM (inactive) in each case. The GI50 in [7], in assay [8], in assay [9], in [10], in [11] and in [12] was > 100 µM (inactive) in each case. Also, the GI50 in assay [13], in assay [14], in assay [15], in assay [16], in assay [17] and in assay [18] was > 100 µM (inactive) in each case. In addition, the GI50 in assay [19] and in assay [20] was > 100 µM (inactive) each time.

In the case of `O=C(O)c1nn[nH]c1S`, the GI50 in assay [1] was > 100 µM (inactive); in assay [2], 30.6 µM (inactive); in assay [3], > 100 µM (inactive); in assay [4] it was > 100 µM (inactive); in assay [5], > 100 µM (inactive); in assay [6], > 100 µM (inactive). In addition, the GI50 in assay [7], in [8], in [9], in assay [10], in assay [11] and in [12] was > 100 µM (inactive) in each case. The GI50 in assay [13], in [14], in assay [15], in assay [16], in [17] and in assay [18] was > 100 µM (inactive) throughout. Moreover, the GI50 in assay [19] and in assay [20] was > 100 µM (inactive) throughout.

For the compound `O=c1c2nc(-c3ccccc3)oc2n(-c2ccccc2)c(=O)n1-c1ccccc1`, the GI50 in assay [1] was > 100 µM (inactive); in assay [2] it was 20.2 µM (inactive); in [3], 18.1 µM (inactive); in assay [4], 19.1 µM (inactive); in assay [5], 26.5 µM (inactive); in [6], 82.2 µM (inactive). Also, the GI50 in [7] was > 46.5 µM (inactive); in [8], 21.9 µM (inactive); in assay [9] it was 25.8 µM (inactive); in assay [10], 38.5 µM (inactive); in [11], 44.4 µM (inactive); in assay [12], 45.7 µM (inactive). Moreover, the GI50 in assay [13] is > 100 µM (inactive); in assay [14] it was 20.7 µM (inactive); in assay [15], > 46.5 µM (inactive); in assay [16], 37.9 µM (inactive); in assay [17], 33.2 µM (inactive); in assay [18] it was > 46.5 µM (inactive). Moreover, the GI50 in [19] is > 31.6 µM (inactive); in assay [20], > 46.5 µM (inactive).

Take `CC(=O)OCc1cccc(O)c1C(=O)CCC=C(C)C`: the GI50 in assay [1], in assay [2], in assay [3], in assay [4], in assay [5] and in assay [6] was > 100 µM (inactive) throughout. The GI50 in assay [7] is > 100 µM (inactive); in [8], > 100 µM (inactive); in assay [9], > 100 µM (inactive); in assay [10] it was 46.9 µM (inactive); in [11] it was > 100 µM (inactive); in [12], > 100 µM (inactive). Besides, the GI50 was 34.7 µM (inactive) in [13]; > 100 µM (inactive) in [14]; > 100 µM (inactive) in assay [15]; > 100 µM (inactive) in assay [16]; > 100 µM (inactive) in [17]; > 100 µM (inactive) in assay [18]. Also, the GI50 in assay [19] and in [20] was > 100 µM (inactive) throughout.

`CCC(N)(C(=O)O)C(C)C` (stereo not given): the GI50 in [1], in assay [2], in assay [3], in [4], in assay [5] and in [6] was > 100 µM (inactive) throughout. Besides, the GI50 in [7], in assay [8], in assay [9], in [10], in assay [11] and in assay [12] was > 100 µM (inactive) throughout. Moreover, the GI50 in [13], in assay [14], in [15], in assay [16], in [17] and in [18] was > 100 µM (inactive) in each case. Further, the GI50 in assay [19] and in assay [20] was > 100 µM (inactive) each time.

In the case of `[Se]=P(c1ccccc1)(c1ccccc1)c1ccc(C(c2ccccc2)=P(c2ccccc2)(c2ccccc2)c2ccccc2)cc1`, the GI50 in assay [1] was 2.28 µM (inactive); in assay [2], 1.46 µM (inactive); in assay [3] it was 1.57 µM (inactive); in assay [4], 7.67 µM (inactive); in assay [5] it was 0.773 µM (active); in assay [6], 1.24 µM (inactive). Also, the GI50 is 0.671 µM (active) in assay [7]; 0.435 µM (active) in assay [8]; 2.76 µM (inactive) in [9]; 0.807 µM (active) in assay [10]; 0.8 µM (active) in assay [11]; 0.695 µM (active) in [12]. The GI50 is 0.0881 µM (active) in assay [13]; 1.01 µM (active) in assay [14]; 0.308 µM (active) in assay [15]; 0.537 µM (active) in [16]; 0.439 µM (active) in [17]; 1.54 µM (inactive) in assay [18]. The GI50 in assay [19] is 0.415 µM (active); in assay [20], 0.753 µM (active).

With `Cn1c(=O)n(CC(Br)CBr)c(=O)n(CC(Br)CBr)c1=O` (stereo not given), the GI50 was 39.7 µM (inactive) in assay [1]; 25.3 µM (inactive) in assay [2]; 32.8 µM (inactive) in assay [3]; 40.5 µM (inactive) in assay [4]; 39.9 µM (inactive) in assay [5]; 71.3 µM (inactive) in assay [6]. Moreover, the GI50 in [7] was 29.9 µM (inactive); in [8], > 100 µM (inactive); in assay [9], 77.4 µM (inactive); in assay [10] it was 18.4 µM (inactive); in [11] it was 31.8 µM (inactive); in [12], 45.8 µM (inactive). The GI50 in [13] was 20.4 µM (inactive); in assay [14] it was 75.7 µM (inactive); in assay [15] it was 21 µM (inactive); in [16] it was 38.7 µM (inactive); in [17] it was 48.9 µM (inactive); in assay [18], 24.3 µM (inactive). Also, the figures for the GI50 in assay [19] and in assay [20] were 18.4 µM (inactive) and 28.8 µM (inactive), respectively.

With `CC(=O)N[C@@H](Cc1ccc(O)cn1)C(=O)NCc1cccc(Cl)c1`, the GI50 in assay [1], in [2], in assay [3], in [4], in [5] and in assay [6] was > 100 µM (inactive) in each case. Besides, the GI50 in assay [7], in [8], in assay [9], in [10], in assay [11] and in assay [12] was > 100 µM (inactive) each time. The GI50 in assay [13] was 37.8 µM (inactive); in assay [14], > 100 µM (inactive); in assay [15], > 100 µM (inactive); in [16], > 100 µM (inactive); in [17] it was > 100 µM (inactive); in assay [18], > 100 µM (inactive). Also, the GI50 in assay [19] and in [20] was > 100 µM (inactive) throughout.

The values are drawn from ChEMBL document CHEMBL1201862, “PubChem BioAssay data set” (2004).
